From patent publication US20220054532A1, “VETERINARY COMPOSITIONS AND METHODS OF USE THEREFOR” (priority 2019, published 2022)

Tested on: dogs suffering from heart failure
Assay: Example 7: heart failure in dogs
Type: in vivo
Conditions: heart failure scale 1 (few to no clinical signs) to 10 (severe); for Initial Score: day 0; for Final Score: day 90, BID
Source text: This example examines the ability of embodiments of the invention versus enalapril to treat heart failure.
The patient group is twenty-four dogs suffering from heart failure.
The patient group is broken into six groups of four dogs. The first group receives enalapril as the sole active agent; the second group receives a composition comprising enalapril and Lasix®; the third group receives a composition comprising HMW HA as the sole active agent; the fourth group receives a composition comprising CBD as the sole active agent; the fifth group receives a composition comprising HMW HA and CBD as the active agents; and the sixth group receives a composition comprising HMW HA, CBD, liposomal CoQ10, hawthorn berry, and ginko biloba as the active agents.
Each composition is administered for a period of ninety (90) days, BID. Each animal is evaluated on days 0 (“Initial Score”), 30, 60, and 90 (“Final Score”) of treatment. The results are averaged and characterized on a scale of 1 (few to no clinical signs of heart failure) to 10 (severe heart failure).
The following canine scores are observed and the results depicted in FIG. 7: […]

Compound | Initial Score | Final Score
C=C(C)[C@@H]1CCC(C)=C[C@H]1c1c(O)cc(CCCCC)cc1O [CBD Alone, 2-[(1R,6R)-3-methyl-6-prop-1-en-2-ylcyclohex-2-en-1-yl]-5-pentylbenzene-1,3-diol] | 8 | 4
hyaluronic acid [HMW HA Alone] | 8 | 4
